# From US5496703A, “Indirect immunoassay for dioxinlike compounds” (priority 1993, dated 1996)
# How the values were obtained:
# [1] = test system: total hepatic S-9 protein tyrosylphosphorylation; test: ELISA with antiphosphotyrosine monoclonal antibody, total hepatic S-9 protein tyrosylphosphorylation, mice dosed i.p.; type: in vivo, C57BL/6 mice
# Protocol: Female, C57BL/6 mice (or any cytochrome P-450IA1 inducible strain) were obtained from Harton Sprague Dawley (Indianapolis, Ind.). Experiments were performed using four to six week old, female mice weighing approximately 16 to 20 g. Mice were fed Prolab RMH 1000 rat, mouse and hamster food (Agway, Cortland, N.Y.) and received tap water ad libitum. All mice were housed three to five per cage and maintained on a photoperiod of 12 hours. Mice were killed 24 hours following an intraperitoneal injection of either corn oil alone or TCDD (Analabs) at 0.25, 0.5, 1, 2, 4, 10, 50 μg/kg, the volume of the injections ranged from 0.1 to 0.2 ml per mouse. Hepatic S-9 fractions were prepared by homogenizing the liver in 3 times the volume of 0.15M KCl. Following a 9000×g centrifugation for 20 minutes, the supernatant (S-9) fraction was carefully removed and quickly frozen for storage at -80° C.
# ELISA were performed with 96-well microtiter plates precoated with antigen. S-9 was used as antigen and was prepared as a series of geometric dilutions ranging from 0.4 to 500 μg protein/mL PBS. One-tenth mL from each dilution was promptly pipetted into the wells of a the microtiter plate in quadruplicate. Plates were incubated overnight at 4° C. After washing with 0.05% Tween 20 (polyoxyethylenesorbitan monolaurate) in phosphate buffered saline (PBS), individual wells were saturated with 0.2 mL bovine serum albumin (20 mg/mL in PBS) for 2 hours at 37° C. Wells were then incubated with antiphosphotyrosine monoclonal antibody (1.5 μg/mL ascites fluid) in 1 mg/mL bovine serum albumin and 0.05% Tween 20 in PBS, and bound for 1 to 1.5 hours at 22° C. Incubation with horseradish peroxidase-linked antimouse IgG (Sigma, St. Louis; 0.5×10^3 mg IgG/mL PBS) and subsequent washing was performed as with the original monoclonal antibody. Peroxidase activity was determined after incubation with substrate (0.03% H2 O2 and 1 mM 2,2'-azinodi(d-ethyl-benzthiazoline sulfonic acid-6) dissolved in 100 mM sodium citrate (pH 4.2) at 22° C. At the first visualization of color change A415 values were recorded.
# [2] = test system: total cell lysate protein tyrosylphosphorylation in X3 human lymphoblastoma cells; test: ELISA with antiphosphotyrosine monoclonal antibody, X3 cell lysate; type: cell-based; details: 16 hours
# Protocol: The X3 human lymphoblastoma cells (Genetest, Wolburn, Mass.) were grown in 75 cm^2 T-flasks in RPMI 1640 medium (Gibco) containing 9% horse serum. Any cell or cell line expressing cytochrome P-450IA1 may be used. The cells were cultured at 37° C. in a 5% CO2 (balance air) environment. Cells were subcultured by centrifuging (1000 rpm, 3 minutes) and resuspended in fresh media to a volume of 50 mL (at a cell density of 1.0×10^6 cells/mL). The TCDD-corn oil solution was homogenized with serum to a final concentration of 0.10 μg/mL. The TCDD-serum was added at concentrations of 0, 0.02, 0.05, 0.1, 0.5 and 1.0 nM per flask and incubated for 16 hours. After the appropriate incubation time, the cells were harvested by centrifugation and washed three times (PBS, […]). A final cell count was then determined.
# ELISA were performed with 96-well microtiter plates precoated with antigen. X3 cell lysate was used as antigen and was prepared as a series of geometric dilutions ranging from 0.4 to 500 μg protein/mL PBS. One-tenth mL from each dilution was promptly pipetted into the wells of the microtiter plate in quadruplicate. […] Peroxidase activity was determined after incubation with substrate (0.03% H2 O2 and 1 mM 2,2'-azinodi(d-ethyl-benzthiazoline sulfonic acid-6) dissolved in 100 mM sodium citrate (pH 4.2) at 22° C. At the first visualization of color change A415 values were recorded.
# Ah receptor = details: C57BL/6J mouse; cited from earlier work
# [3] = test system: AHH and delta-ALA (delta-aminolaevulinic acid) synthetase; details: versus other inducers, such as 3-methyl-cholanthrene; cited from earlier work
# EGF receptor = details: cited from earlier work
smiles,measurement,setting,value
"Clc1cc2c(cc1Cl)Oc1cc(Cl)c(Cl)cc1O2 [TCDD, 2,3,7,8-tetrachlorodibenzo-p-dioxin]",dose of maximal total protein tyrosylphosphorylation,"[1]; ELISA, i.p., 24 hours after dosing, female C57BL/6 mice",2 μg TCDD/kg
same,ED50,"[1]; Mus musculus, ip, ELISA, i.p., 24 hours after dosing, female C57BL/6 mice, read-out: median effective dose (ED50), total hepatic S-9 pTP",0.5 µg/kg
same,separation of ED50s for total protein or 44 kDalton pTP and EROD,"[1]; ratio to EROD ED50 (A3), C57BL/6 mice",10 factor
same,concentration of maximal total protein tyrosylphosphorylation,[2],1 nM
same,EC50,[2]; Homo sapiens,0.13 nM
same,hepatic level of Ah receptor capable of binding TCDD,Ah receptor,40-120 fmol/mg of protein
same,potency in induction of AHH and delta-ALA synthetase,[3],orders of magnitude more potent
same,plasma membrane EGF receptor levels,EGF receptor,up-regulates plasma membrane EGF receptor levels
